ChEMBL document CHEMBL4507318, “Data for DCP probe BAY-985” (2021)

What was measured:
[1] = target: Bone morphogenetic protein receptor type-1A (Homo sapiens) (UniProt P36894)
[2] = target: Myosin-IIIa (Homo sapiens) (UniProt Q8NEV4)
[3] = target: Serine/threonine-protein kinase B-raf (Homo sapiens) (UniProt P15056)
[4] = target: Myosin light chain kinase, smooth muscle (Homo sapiens) (UniProt Q15746)
[5] = target: Tyrosine-protein kinase Blk (Homo sapiens) (UniProt P51451)
[6] = target: Casein kinase I isoform alpha-like (Homo sapiens) (UniProt Q8N752)
[7] = target: Ribosomal protein S6 kinase alpha-4 (Homo sapiens) (UniProt O75676)
[8] = target: TRAF2 and NCK-interacting protein kinase (Homo sapiens) (UniProt Q9UKE5)
[9] = target: Mitogen-activated protein kinase kinase kinase 3 (Homo sapiens) (UniProt Q99759)
Mitogen-activated protein kinase kinase kinase 3 (Homo sapiens), sequence (Q99759 whole entry): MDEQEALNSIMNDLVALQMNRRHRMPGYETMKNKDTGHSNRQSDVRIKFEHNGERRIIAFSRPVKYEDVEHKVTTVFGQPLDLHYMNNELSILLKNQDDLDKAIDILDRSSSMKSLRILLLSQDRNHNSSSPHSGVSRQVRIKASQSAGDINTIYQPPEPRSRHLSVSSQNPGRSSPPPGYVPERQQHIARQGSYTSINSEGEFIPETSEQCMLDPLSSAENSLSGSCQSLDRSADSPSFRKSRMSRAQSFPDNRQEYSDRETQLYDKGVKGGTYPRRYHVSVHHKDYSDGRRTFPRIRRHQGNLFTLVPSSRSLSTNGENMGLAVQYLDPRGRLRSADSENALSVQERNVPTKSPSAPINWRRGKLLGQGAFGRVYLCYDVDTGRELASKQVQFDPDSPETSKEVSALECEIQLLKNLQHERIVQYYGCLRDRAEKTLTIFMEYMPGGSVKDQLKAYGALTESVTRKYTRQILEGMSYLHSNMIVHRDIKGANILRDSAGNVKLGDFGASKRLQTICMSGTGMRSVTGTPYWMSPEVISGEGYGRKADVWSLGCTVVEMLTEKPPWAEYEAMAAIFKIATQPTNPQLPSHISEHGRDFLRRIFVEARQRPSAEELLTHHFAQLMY

[10] = target: Ephrin type-A receptor 4 (Homo sapiens) (UniProt P54764)
[11] = target: Proto-oncogene tyrosine-protein kinase ROS (Homo sapiens) (UniProt P08922)
[12] = target: Mitogen-activated protein kinase kinase kinase kinase 3 (Homo sapiens) (UniProt Q8IVH8)
[13] = target: GABA-A receptor; anion channel (Rattus norvegicus) (UniProt O09028+P15431+P18506+P18508+P19969+P20236+P23574+P23576+P28471+P28473+P30191+P62813+P63079+P63138+Q91ZM7+Q9ES14); settings: Compound concentration 10.0 uM
[14] = target: Receptor tyrosine-protein kinase erbB-2 (Homo sapiens) (UniProt P04626)
Receptor tyrosine-protein kinase erbB-2 (Homo sapiens), sequence (P04626 whole entry): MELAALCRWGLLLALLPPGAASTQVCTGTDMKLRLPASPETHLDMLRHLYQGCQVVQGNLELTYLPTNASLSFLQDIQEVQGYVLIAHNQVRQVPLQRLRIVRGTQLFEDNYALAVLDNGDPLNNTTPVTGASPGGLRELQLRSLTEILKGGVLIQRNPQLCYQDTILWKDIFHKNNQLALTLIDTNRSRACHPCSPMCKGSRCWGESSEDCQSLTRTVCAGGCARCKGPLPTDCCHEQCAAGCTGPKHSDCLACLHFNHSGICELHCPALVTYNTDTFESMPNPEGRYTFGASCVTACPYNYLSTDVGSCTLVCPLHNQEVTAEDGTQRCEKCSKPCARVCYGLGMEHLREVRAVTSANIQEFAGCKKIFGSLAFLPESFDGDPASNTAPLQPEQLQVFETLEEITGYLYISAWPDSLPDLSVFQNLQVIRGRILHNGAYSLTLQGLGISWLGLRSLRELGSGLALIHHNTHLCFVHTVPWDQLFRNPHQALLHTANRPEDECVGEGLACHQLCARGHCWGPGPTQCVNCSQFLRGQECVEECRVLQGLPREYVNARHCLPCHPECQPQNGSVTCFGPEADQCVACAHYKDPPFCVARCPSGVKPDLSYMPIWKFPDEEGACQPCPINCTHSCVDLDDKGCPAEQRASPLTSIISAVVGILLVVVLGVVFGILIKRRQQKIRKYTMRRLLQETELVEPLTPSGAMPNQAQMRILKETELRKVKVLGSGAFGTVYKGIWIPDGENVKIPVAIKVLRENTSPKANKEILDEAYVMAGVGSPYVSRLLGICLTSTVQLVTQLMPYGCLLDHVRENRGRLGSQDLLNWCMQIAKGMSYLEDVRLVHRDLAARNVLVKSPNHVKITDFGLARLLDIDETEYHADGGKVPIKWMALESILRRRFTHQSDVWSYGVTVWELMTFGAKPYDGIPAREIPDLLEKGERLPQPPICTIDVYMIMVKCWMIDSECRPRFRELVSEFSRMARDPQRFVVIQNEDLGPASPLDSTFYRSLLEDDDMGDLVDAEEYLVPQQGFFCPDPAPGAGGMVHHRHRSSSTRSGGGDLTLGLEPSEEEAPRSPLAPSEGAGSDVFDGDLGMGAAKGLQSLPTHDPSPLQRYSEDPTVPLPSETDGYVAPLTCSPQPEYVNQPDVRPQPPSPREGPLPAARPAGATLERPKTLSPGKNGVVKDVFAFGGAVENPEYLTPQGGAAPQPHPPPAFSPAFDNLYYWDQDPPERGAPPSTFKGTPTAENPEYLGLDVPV

[15] = target: Ribosomal protein S6 kinase alpha-6 (Homo sapiens) (UniProt Q9UK32)
Ribosomal protein S6 kinase alpha-6 (Homo sapiens), sequence (Q9UK32 whole entry): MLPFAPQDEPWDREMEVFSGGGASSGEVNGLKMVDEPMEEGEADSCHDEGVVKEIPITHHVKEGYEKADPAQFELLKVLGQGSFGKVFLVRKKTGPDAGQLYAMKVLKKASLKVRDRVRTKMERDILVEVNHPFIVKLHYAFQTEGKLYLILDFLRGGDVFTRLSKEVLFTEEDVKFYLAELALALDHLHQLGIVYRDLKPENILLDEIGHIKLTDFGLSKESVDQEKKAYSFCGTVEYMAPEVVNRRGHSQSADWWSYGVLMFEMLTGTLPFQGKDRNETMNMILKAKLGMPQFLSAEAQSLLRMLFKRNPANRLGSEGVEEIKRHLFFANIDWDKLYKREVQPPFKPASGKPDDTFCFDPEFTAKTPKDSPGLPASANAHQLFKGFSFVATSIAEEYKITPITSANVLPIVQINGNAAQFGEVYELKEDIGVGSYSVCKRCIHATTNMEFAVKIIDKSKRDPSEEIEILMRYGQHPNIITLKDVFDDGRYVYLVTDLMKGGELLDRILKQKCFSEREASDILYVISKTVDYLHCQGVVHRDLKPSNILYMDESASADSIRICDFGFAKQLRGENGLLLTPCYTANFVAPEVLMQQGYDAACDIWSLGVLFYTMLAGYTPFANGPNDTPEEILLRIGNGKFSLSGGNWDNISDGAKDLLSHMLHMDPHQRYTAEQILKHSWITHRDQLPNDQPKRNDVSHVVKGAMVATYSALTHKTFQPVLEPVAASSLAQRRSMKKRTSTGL

[16] = test system: eIF-2-alpha kinase GCN2 (Homo sapiens), Q9P2K8 [S808G]
[17] = target: Serine/threonine-protein kinase LATS1 (Homo sapiens) (UniProt O95835)
[18] = target: Histamine H4 receptor (Homo sapiens) (UniProt Q9H3N8); settings: Compound concentration 10.0 uM
[19] = target: Membrane-associated tyrosine- and threonine-specific cdc2-inhibitory kinase (Homo sapiens) (UniProt Q99640)
[20] = target: Calcium/calmodulin-dependent protein kinase type 1 (Homo sapiens) (UniProt Q14012)
[21] = target: Ephrin type-A receptor 5 (Homo sapiens) (UniProt P54756)
[22] = target: Sodium-dependent serotonin transporter (Homo sapiens) (UniProt P31645); settings: Compound concentration 10.0 uM
[23] = target: Interferon-induced, double-stranded RNA-activated protein kinase (Homo sapiens) (UniProt P19525)
[24] = target: Phosphatidylinositol 4-phosphate 5-kinase type-1 alpha (Homo sapiens) (UniProt Q99755)
[25] = test system: Epidermal growth factor receptor (Homo sapiens), P00533 [UNDEFINED MUTATION]
[26] = test system: Hepatocyte growth factor receptor (Homo sapiens), P08581 [M1250T]
[27] = target: Mitogen-activated protein kinase kinase kinase 20 (Homo sapiens) (UniProt Q9NYL2)
[28] = target: Serine/threonine-protein kinase MRCK alpha (Homo sapiens) (UniProt Q5VT25)
[29] = target: Muscarinic acetylcholine receptor M1 (Homo sapiens) (UniProt P11229); settings: Compound concentration 10.0 uM
Muscarinic acetylcholine receptor M1 (Homo sapiens), sequence (P11229 whole entry): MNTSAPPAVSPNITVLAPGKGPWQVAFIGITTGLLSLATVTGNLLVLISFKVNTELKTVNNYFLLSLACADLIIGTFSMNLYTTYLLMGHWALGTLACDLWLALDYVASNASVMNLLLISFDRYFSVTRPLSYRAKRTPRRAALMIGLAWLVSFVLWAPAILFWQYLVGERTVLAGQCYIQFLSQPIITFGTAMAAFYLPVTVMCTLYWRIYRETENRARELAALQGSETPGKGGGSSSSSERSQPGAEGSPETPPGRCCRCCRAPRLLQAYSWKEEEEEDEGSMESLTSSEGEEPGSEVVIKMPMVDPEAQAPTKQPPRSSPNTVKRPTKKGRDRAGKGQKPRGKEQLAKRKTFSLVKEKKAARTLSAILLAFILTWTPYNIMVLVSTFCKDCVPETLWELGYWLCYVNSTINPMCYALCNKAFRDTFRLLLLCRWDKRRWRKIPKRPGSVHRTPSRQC

[30] = target: Aurora kinase A (Homo sapiens) (UniProt O14965)
[31] = target: Phosphatidylinositol 4,5-bisphosphate 3-kinase catalytic subunit delta isoform (Homo sapiens) (UniProt O00329)
[32] = target: Beta-3 adrenergic receptor (Homo sapiens) (UniProt P13945); settings: Compound concentration 10.0 uM
Beta-3 adrenergic receptor (Homo sapiens), sequence (P13945 whole entry, looked up): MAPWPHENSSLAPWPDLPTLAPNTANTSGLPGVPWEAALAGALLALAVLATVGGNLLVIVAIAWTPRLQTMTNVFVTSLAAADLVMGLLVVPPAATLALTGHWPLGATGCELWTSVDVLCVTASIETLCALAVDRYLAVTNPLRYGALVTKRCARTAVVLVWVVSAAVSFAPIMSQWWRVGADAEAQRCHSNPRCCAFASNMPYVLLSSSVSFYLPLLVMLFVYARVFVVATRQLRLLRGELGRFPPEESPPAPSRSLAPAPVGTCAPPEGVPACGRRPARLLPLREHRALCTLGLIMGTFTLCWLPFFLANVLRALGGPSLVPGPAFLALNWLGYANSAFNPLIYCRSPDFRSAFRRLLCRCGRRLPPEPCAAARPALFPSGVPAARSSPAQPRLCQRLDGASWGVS

[33] = target: Calcium/calmodulin-dependent protein kinase kinase 1 (Homo sapiens) (UniProt Q8N5S9)
[34] = test system: Phosphatidylinositol 4,5-bisphosphate 3-kinase catalytic subunit alpha isoform (Homo sapiens), P42336 [M1043I]
Phosphatidylinositol 4,5-bisphosphate 3-kinase catalytic subunit alpha isoform (Homo sapiens), P42336 [M1043I], sequence (P42336 whole entry M1043I, canonical isoform): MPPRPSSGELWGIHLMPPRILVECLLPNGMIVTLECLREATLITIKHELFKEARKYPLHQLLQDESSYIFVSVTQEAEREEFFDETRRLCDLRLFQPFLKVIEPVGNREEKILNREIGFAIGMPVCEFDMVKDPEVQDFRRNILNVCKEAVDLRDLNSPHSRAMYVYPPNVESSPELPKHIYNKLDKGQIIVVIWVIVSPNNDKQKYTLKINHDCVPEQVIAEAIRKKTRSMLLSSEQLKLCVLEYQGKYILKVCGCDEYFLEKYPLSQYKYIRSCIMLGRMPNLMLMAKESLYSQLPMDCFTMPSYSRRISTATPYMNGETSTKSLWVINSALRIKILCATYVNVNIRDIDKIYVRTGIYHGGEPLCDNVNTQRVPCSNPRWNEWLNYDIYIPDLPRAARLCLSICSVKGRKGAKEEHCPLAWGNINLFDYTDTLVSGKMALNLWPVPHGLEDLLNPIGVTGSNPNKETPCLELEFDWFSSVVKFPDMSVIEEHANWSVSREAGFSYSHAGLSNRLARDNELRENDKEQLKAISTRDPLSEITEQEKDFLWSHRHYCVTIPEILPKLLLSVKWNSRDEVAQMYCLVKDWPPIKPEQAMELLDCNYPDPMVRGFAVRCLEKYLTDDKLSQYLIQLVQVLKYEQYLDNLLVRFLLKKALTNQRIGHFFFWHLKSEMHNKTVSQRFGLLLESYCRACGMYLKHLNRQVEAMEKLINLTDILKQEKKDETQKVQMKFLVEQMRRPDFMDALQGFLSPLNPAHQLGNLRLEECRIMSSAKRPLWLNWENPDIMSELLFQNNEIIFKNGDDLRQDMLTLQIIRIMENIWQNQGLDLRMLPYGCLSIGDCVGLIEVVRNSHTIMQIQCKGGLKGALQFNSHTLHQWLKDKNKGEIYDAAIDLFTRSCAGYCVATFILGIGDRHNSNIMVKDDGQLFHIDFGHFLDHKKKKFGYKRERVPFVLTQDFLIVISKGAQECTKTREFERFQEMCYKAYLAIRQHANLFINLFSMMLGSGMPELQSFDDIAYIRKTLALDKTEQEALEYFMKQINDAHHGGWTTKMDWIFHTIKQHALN

[35] = target: Serine/threonine-protein kinase PAK 3 (Homo sapiens) (UniProt O75914)
[36] = target: Beta-adrenergic receptor kinase 1 (Homo sapiens) (UniProt P25098)
[37] = target: Dual specificity mitogen-activated protein kinase kinase 7 (Homo sapiens) (UniProt O14733)
[38] = target: Muscarinic acetylcholine receptor M2 (Homo sapiens) (UniProt P08172); settings: Compound concentration 10.0 uM
[39] = target: Mitogen-activated protein kinase kinase kinase kinase 1 (Homo sapiens) (UniProt Q92918)
[40] = target: Bone morphogenetic protein receptor type-1B (Homo sapiens) (UniProt O00238)
[41] = target: Mitogen-activated protein kinase kinase kinase 5 (Homo sapiens) (UniProt Q99683)
[42] = target: Cyclin-dependent kinase 4 (Homo sapiens) (UniProt P11802)
[43] = target: Mitogen-activated protein kinase kinase kinase 11 (Homo sapiens) (UniProt Q16584)
[44] = Compound concentration 100.0 nM
[45] = Compound concentration 1000.0 nM

Tyrosine-protein kinase Blk (Homo sapiens), sequence (P51451 2-505 limits assumed): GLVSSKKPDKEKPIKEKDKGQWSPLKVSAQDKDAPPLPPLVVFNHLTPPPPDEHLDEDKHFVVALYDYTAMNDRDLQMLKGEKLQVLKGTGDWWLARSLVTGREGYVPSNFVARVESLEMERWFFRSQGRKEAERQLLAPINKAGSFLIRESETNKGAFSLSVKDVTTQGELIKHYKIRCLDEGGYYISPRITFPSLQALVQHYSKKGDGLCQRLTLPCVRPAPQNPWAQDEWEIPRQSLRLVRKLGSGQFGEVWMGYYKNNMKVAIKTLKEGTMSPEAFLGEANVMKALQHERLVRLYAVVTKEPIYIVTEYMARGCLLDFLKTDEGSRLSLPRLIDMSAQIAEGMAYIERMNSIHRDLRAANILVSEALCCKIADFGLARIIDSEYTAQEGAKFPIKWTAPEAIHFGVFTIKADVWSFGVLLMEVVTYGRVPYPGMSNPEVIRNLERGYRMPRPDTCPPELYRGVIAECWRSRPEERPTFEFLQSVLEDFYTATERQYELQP

C[C@H](c1ccnc(Nc2nc3ccc(-c4cc(N(C)C)ncn4)cc3[nH]2)c1)N1CCN(C(=O)CC(F)(F)F)CC1 [BAY-985]
inactive: residual activity [1, 44] 97% | residual activity [2, 44] 100% | residual activity [3, 44] 100% | residual activity [4, 44] 100% | residual activity [5, 44] 79% | residual activity [6, 44] 94% | residual activity [7, 44] 100% | residual activity [8, 44] 96% | residual activity [9, 44] 100% | residual activity [10, 44] 98% | residual activity [11, 44] 100% | residual activity [12, 44] 100% | inhibition [13] 5.57% | residual activity [14, 44] 100% | residual activity [15, 44] 97% | residual activity [16, 44] 58% | residual activity [17, 44] 100% | inhibition [18] -0.75% | residual activity [19, 44] 83% | residual activity [20, 44] 88% | residual activity [21, 44] 81% | inhibition [22] 21.6% | residual activity [23, 44] 100% | residual activity [24, 44] 100% | residual activity [25, 44] 96% | residual activity [26, 44] 93% | residual activity [27, 44] 98% | residual activity [28, 44] 99% | inhibition [29] 15.1% | residual activity [30, 44] 100% | residual activity [31, 44] 100% | inhibition [32] 30.4% | residual activity [33, 44] 89% | residual activity [34, 44] 84% | residual activity [35, 44] 100% | residual activity [36, 44] 100% | residual activity [37, 44] 92% | inhibition [38] 32.9% | residual activity [39, 44] 51% | residual activity [40, 44] 86% | residual activity [41, 44] 100% | residual activity [42, 44] 100% | residual activity [43, 44] 92%

CN(C)c1ncnc(-c2ccc3nc(Nc4cc(CN5CCN(C(=O)CC(F)(F)F)CC5)ccn4)[nH]c3c2)c1Cl [BAY-440]
inactive: residual activity [1, 45] 95% | residual activity [2, 45] 100% | residual activity [3, 45] 83% | residual activity [4, 45] 68% | residual activity [5, 45] 82% | residual activity [6, 45] 94% | residual activity [7, 45] 80% | residual activity [8, 45] 53% | residual activity [9, 45] 50% | residual activity [10, 45] 92% | residual activity [11, 45] 100% | residual activity [12, 45] 74% | inhibition [13] 14% | residual activity [14, 45] 87% | residual activity [15, 45] 84% | residual activity [16, 45] 100% | residual activity [17, 45] 95% | inhibition [18] -2.29% | residual activity [19, 45] 75% | residual activity [20, 45] 100% | residual activity [21, 45] 100% | inhibition [22] 9.9% | residual activity [23, 45] 100% | residual activity [24, 45] 96% | residual activity [25, 45] 88% | residual activity [26, 45] 70% | residual activity [27, 45] 65% | residual activity [28, 45] 100% | inhibition [29] 32.1% | residual activity [30, 45] 84% | residual activity [31, 45] 67% | inhibition [32] 4.42% | residual activity [33, 45] 100% | residual activity [34, 45] 56% | residual activity [35, 45] 81% | residual activity [36, 45] 57% | residual activity [37, 45] 100% | inhibition [38] 35.1% | residual activity [39, 45] 91% | residual activity [40, 45] 59% | residual activity [41, 45] 100% | residual activity [42, 45] 69% | residual activity [43, 45] 100%
